# Results reported in US20250115569A1, “SULFONAMIDE COMPOUNDS FOR THE TREATMENT OF NEUROLOGICAL CONDITIONS” (LARIO THERAPEUTICS LIMITED, priority 2021, published 2025).
# Target: Cav2.3 (Homo sapiens, UniProt Q15878)
# Assay: Human Cav2.3 channel calcium-influx assay
# Assay type: cell-based
# Conditions: Fluo8 fluorescence, HEK-293 T-Rex/Kir2.1/Cav2.3e cells, without pluronic acid, read-out: Cav2.3 (pIC50) (converted)
# How it was run: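 Signal = peak fluorescence (5–130 s) minus baseline (1–2 s), normalized to neutral (0) and inhibitor (−100) controls as % effect. Depolarization used final 20 mM KCl, 130 mM NaCl, 2 mM CaCl2, after 3 min RT compound exposure (30 μM top, half-log, 8 points, 0.3% DMSO) in doxycycline-induced HEK-293 T-Rex/Kir2.1/Cav2.3e-β4-α2δ1 cells with Fluo8 NW.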
# Sequence of Cav2.3 (Q15878 whole entry, looked up): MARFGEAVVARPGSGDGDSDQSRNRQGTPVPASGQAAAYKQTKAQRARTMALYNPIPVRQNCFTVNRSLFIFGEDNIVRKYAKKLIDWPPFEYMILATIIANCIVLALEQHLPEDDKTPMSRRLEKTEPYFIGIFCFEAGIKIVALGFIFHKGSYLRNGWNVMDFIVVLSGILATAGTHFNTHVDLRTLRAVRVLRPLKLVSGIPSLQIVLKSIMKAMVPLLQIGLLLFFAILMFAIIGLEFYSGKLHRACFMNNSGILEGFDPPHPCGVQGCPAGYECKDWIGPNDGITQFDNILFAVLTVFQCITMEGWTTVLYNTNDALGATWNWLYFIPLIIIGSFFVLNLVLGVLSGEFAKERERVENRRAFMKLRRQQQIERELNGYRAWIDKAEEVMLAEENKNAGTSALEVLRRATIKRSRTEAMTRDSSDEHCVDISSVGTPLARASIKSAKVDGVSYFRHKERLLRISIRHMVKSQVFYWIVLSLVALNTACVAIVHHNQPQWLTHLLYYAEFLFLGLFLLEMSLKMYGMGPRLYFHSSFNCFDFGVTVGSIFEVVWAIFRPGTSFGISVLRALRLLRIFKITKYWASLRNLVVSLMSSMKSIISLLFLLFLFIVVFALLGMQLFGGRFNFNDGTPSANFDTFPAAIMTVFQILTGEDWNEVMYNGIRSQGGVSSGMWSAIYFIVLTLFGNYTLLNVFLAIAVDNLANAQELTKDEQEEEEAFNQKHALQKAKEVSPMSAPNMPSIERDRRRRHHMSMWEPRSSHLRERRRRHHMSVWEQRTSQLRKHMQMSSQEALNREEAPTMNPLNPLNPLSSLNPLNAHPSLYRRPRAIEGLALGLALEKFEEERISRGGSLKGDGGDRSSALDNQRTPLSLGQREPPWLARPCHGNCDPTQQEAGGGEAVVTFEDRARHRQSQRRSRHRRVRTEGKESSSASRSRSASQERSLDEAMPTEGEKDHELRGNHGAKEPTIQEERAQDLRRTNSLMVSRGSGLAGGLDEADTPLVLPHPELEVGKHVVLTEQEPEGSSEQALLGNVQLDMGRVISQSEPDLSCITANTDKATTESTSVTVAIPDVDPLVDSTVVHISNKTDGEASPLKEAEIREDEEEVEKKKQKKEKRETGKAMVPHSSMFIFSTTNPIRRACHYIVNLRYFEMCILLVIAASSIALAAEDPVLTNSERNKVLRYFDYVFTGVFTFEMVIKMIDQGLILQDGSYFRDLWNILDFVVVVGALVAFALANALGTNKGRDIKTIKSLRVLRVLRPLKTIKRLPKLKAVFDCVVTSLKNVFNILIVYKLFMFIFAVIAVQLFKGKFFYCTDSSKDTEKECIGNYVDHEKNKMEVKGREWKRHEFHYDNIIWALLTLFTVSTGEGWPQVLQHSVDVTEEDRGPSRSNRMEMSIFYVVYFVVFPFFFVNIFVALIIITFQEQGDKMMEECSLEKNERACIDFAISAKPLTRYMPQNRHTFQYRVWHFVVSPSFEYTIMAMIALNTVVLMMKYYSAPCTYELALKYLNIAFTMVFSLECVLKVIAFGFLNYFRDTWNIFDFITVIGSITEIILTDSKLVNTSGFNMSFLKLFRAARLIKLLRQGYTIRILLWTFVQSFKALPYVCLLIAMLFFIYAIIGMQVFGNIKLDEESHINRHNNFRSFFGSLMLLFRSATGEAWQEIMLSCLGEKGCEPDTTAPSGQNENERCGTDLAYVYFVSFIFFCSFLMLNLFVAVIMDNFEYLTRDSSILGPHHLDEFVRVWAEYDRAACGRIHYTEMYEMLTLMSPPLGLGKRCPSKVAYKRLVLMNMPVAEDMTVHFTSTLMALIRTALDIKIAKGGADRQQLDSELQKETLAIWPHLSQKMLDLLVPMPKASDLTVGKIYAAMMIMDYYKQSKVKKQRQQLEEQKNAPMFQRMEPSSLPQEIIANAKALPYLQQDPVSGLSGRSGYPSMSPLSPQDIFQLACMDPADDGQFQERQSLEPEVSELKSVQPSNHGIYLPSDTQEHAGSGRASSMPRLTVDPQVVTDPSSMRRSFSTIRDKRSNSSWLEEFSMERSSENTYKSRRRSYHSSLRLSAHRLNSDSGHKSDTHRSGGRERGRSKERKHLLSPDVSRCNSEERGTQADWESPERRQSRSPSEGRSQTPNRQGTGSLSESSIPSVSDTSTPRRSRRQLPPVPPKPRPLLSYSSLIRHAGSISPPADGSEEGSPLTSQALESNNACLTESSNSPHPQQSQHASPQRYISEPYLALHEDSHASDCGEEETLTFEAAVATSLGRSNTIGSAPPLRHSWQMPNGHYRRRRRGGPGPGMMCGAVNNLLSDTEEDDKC
row,SMILES,IC50 [nM]
1,"CCN([C@H](c1ccc(F)cc1)C(F)(F)F)S(=O)(=O)c1cc2ncccn2n1 [Example 148, (R)—N-ethyl-N-(2,2,2-trifluoro-1-(4-fluorophenyl)ethyl)pyrazolo[1,5-a]pyrimidine-2-sulfonamide]",692
2,"CCN([C@H](c1ccc(F)cc1)C(F)(F)F)S(=O)(=O)c1cnc2ncsc2c1 [Example 151, (R)—N-ethyl-N-(2,2,2-trifluoro-1-(4-fluorophenyl)ethyl)thiazolo[4,5-b]pyridine-6-sulfonamide]",170
3,"CCN([C@H](c1ccc(F)cc1)C(F)(F)F)S(=O)(=O)c1nc2ccccn2n1 [Example 153, (R)—N-ethyl-N-(2,2,2-trifluoro-1-(4-fluorophenyl)ethyl)-[1,2,4]triazolo[1,5-a]pyridine-2-sulfonamide]",1580
4,"CCN([C@H](c1ccc(F)cc1)C(F)(F)F)S(=O)(=O)c1ccc2sc(N)nc2c1 [Example 155, (R)-2-amino-N-ethyl-N-(2,2,2-trifluoro-1-(4-fluorophenyl)ethyl)benzo[d]thiazole-5-sulfonamide]",1910
5,"CCN([C@H](c1ccc(F)cc1)C(F)(F)F)S(=O)(=O)c1cnc2nc[nH]c2c1 [Example 156, (R)—N-ethyl-N-(2,2,2-trifluoro-1-(4-fluorophenyl)ethyl)-1H-imidazo[4,5-b]pyridine-6-sulfonamide]",204
6,"CCN([C@H](c1ccc(F)cc1)C(F)(F)F)S(=O)(=O)c1ccc2nc(C)c(Cl)n2n1 [Example 157, (R)-3-chloro-N-ethyl-2-methyl-N-(2,2,2-trifluoro-1-(4-fluorophenyl)ethyl)imidazo[1,2-b]pyridazine-6-sulfonamide]",3020
7,"CCN([C@H](c1ccc(F)cc1)C(F)(F)F)S(=O)(=O)c1ccn2nnnc2c1 [Example 158, (R)—N-ethyl-N-(2,2,2-trifluoro-1-(4-fluorophenyl)ethyl)tetrazolo[1,5-a]pyridine-7-sulfonamide]",275
8,"CCN([C@H](c1ccc(F)cc1)C(F)(F)F)S(=O)(=O)c1ccc2ncn(C)c2c1 [Example 164, (R)—N-ethyl-1-methyl-N-(2,2,2-trifluoro-1-(4-fluorophenyl)ethyl)-1H-benzo[d]imidazole-6-sulfonamide]",174
9,"CCN([C@H](c1ccc(F)cc1)C(F)(F)F)S(=O)(=O)c1cnc2ccnn2c1 [Example 165, (R)—N-ethyl-N-(2,2,2-trifluoro-1-(4-fluorophenyl)ethyl)pyrazolo[1,5-a]pyrimidine-6-sulfonamide]",123
10,"CCN([C@H](c1ccc(F)cc1)C(F)(F)F)S(=O)(=O)c1cnc2[nH]nnc2c1 [Example 166, (R)—N-ethyl-N-(2,2,2-trifluoro-1-(4-fluorophenyl)ethyl)-1H-[1,2,3]triazolo[4,5-b]pyridine-6-sulfonamide]",794
11,"CCN([C@H](c1ccc(F)cc1)C(F)(F)F)S(=O)(=O)c1cc2cn[nH]c2cn1 [Example 167, (R)—N-ethyl-N-(2,2,2-trifluoro-1-(4-fluorophenyl)ethyl)-1H-pyrazolo[3,4-c]pyridine-5-sulfonamide]",331
12,"CCN([C@H](c1ccc(F)cc1)C(F)(F)F)S(=O)(=O)c1ccc2nnc(C)n2n1 [Example 168, (R)—N-ethyl-3-methyl-N-(2,2,2-trifluoro-1-(4-fluorophenyl)ethyl)-[1,2,4]triazolo[4,3-b]pyridazine-6-sulfonamide]",2190
13,"CCN([C@H](c1ccc(F)cc1)C(F)(F)F)S(=O)(=O)c1ccc2nnc(C(F)(F)F)n2n1 [Example 169, (R)—N-ethyl-N-(2,2,2-trifluoro-1-(4-fluorophenyl)ethyl)-3-(trifluoromethyl)-[1,2,4]triazolo[4,3-b]pyridazine-6-sulfonamide]",5750
14,"CN([C@H](c1ccc(F)cc1)C(F)(F)F)S(=O)(=O)c1ccc2nnc(C(F)(F)F)n2n1 [Example 170, (R)—N-methyl-N-(2,2,2-trifluoro-1-(4-fluorophenyl)ethyl)-3-(trifluoromethyl)-[1,2,4]triazolo[4,3-b]pyridazine-6-sulfonamide]",13200
15,"CCN([C@H](c1ccc(F)cc1)C(F)(F)F)S(=O)(=O)c1nn(CC)c2cccnc12 [Example 173, (R)—N,1-diethyl-N-(2,2,2-trifluoro-1-(4-fluorophenyl)ethyl)-1H-pyrazolo[4,3-b]pyridine-3-sulfonamide]",11200
16,"CCN([C@H](c1ccc(F)cc1)C(F)(F)F)S(=O)(=O)c1n[nH]c2cccnc12 [Example 174, (R)—N-ethyl-N-(2,2,2-trifluoro-1-(4-fluorophenyl)ethyl)-1H-pyrazolo[4,3-b]pyridine-3-sulfonamide]",18600
17,"CCN([C@H](c1ccc(F)cc1)C(F)(F)F)S(=O)(=O)c1ccnc2[nH]ccc12 [Example 175, (R)—N-ethyl-N-(2,2,2-trifluoro-1-(4-fluorophenyl)ethyl)-1H-pyrrolo[2,3-b]pyridine-4-sulfonamide]",302
18,"CCN([C@H](c1ccc(F)cc1)C(F)(F)F)S(=O)(=O)c1cnc2cccnn12 [Example 176, (R)—N-ethyl-N-(2,2,2-trifluoro-1-(4-fluorophenyl)ethyl)imidazo[1,2-b]pyridazine-3-sulfonamide]",91.2
19,"CCN([C@H](c1ccc(F)cc1)C(F)(F)F)S(=O)(=O)c1cnc2ncccn12 [Example 177, (R)—N-ethyl-N-(2,2,2-trifluoro-1-(4-fluorophenyl)ethyl)imidazo[1,2-a]pyrimidine-3-sulfonamide]",33.9
20,"CN([C@H](c1ccc(Cl)cc1)C(F)(F)F)S(=O)(=O)c1cnc2nsnc2c1 [Example 179, (R)—N-(1-(4-chlorophenyl)-2,2,2-trifluoroethyl)-N-methyl-[1,2,5]thiadiazolo[3,4-b]pyridine-6-sulfonamide]",661

# Further lines, results first:
row,IC50 [nM],SMILES
1,447,"CCN([C@H](c1ccc(F)cc1)C(F)(F)F)S(=O)(=O)c1ccc2nc(C)cn2n1 [Example 180, (R)—N-ethyl-2-methyl-N-(2,2,2-trifluoro-1-(4-fluorophenyl)ethyl)imidazo[1,2-b]pyridazine-6-sulfonamide]"
2,537,"CCN([C@H](c1ccc(F)cc1)C(F)(F)F)S(=O)(=O)c1cc2cc[nH]c2cn1 [Example 181, (R)—N-ethyl-N-(2,2,2-trifluoro-1-(4-fluorophenyl)ethyl)-1H-pyrrolo[2,3-c]pyridine-5-sulfonamide]"
3,288,"CCN([C@H](c1ccc(F)cc1)C(F)(F)F)S(=O)(=O)c1cccc2[nH]ncc12 [Example 182, (R)—N-ethyl-N-(2,2,2-trifluoro-1-(4-fluorophenyl)ethyl)-1H-indazole-4-sulfonamide]"
4,240,"CN([C@H](c1ccc(F)cc1)C(F)(F)F)S(=O)(=O)c1cnc2ccnn2c1 [Example 183, (R)—N-methyl-N-(2,2,2-trifluoro-1-(4-fluorophenyl)ethyl)pyrazolo[1,5-a]pyrimidine-6-sulfonamide]"
5,155,"CCN([C@H](c1ccc(F)cc1)C(F)(F)F)S(=O)(=O)c1ccc2nc[nH]c2c1 [Example 185, (R)—N-ethyl-N-(2,2,2-trifluoro-1-(4-fluorophenyl)ethyl)-1H-benzo[d]imidazole-6-sulfonamide]"
6,19.1,"CN([C@H](c1ccc(Cl)cc1)C(F)(F)F)S(=O)(=O)c1cnc2ccccn12 [Example 187, (R)—N-(1-(4-chlorophenyl)-2,2,2-trifluoroethyl)-N-methylimidazo[1,2-a]pyridine-3-sulfonamide]"
7,309,"CCN([C@H](c1ccc(F)cc1)C(F)(F)F)S(=O)(=O)c1ccc2[nH]ncc2n1 [Example 188, (R)—N-ethyl-N-(2,2,2-trifluoro-1-(4-fluorophenyl)ethyl)-1H-pyrazolo[4,3-b]pyridine-5-sulfonamide]"
8,166,"CCN([C@H](c1ccc(F)cc1)C(F)(F)F)S(=O)(=O)c1ccc2[nH]nnc2c1 [Example 189, (R)—N-ethyl-N-(2,2,2-trifluoro-1-(4-fluorophenyl)ethyl)-1H-benzo[d][1,2,3]triazole-5-sulfonamide]"
9,1000,"CCN([C@H](c1ccc(F)cc1)C(F)(F)F)S(=O)(=O)c1nn(CC)c2ncccc12 [Example 190, (R)—N,1-diethyl-N-(2,2,2-trifluoro-1-(4-fluorophenyl)ethyl)-1H-pyrazolo[3,4-b]pyridine-3-sulfonamide]"
10,240,"CN([C@H](c1ccc(Cl)cc1)C(F)(F)F)S(=O)(=O)c1ccn2ccnc2c1 [Example 194, (R)—N-(1-(4-chlorophenyl)-2,2,2-trifluoroethyl)-N-methylimidazo[1,2-a]pyridine-7-sulfonamide]"
11,9330,"COc1ccc([C@@H](N(C)S(=O)(=O)c2cn3ccncc3n2)C(F)(F)F)cc1 [Example 196, (R)—N-methyl-N-(2,2,2-trifluoro-1-(4-methoxyphenyl)ethyl)imidazo[1,2-a]pyrazine-2-sulfonamide]"
12,6170,"Cc1ccc([C@@H](N(C)S(=O)(=O)c2cn3ccncc3n2)C(F)(F)F)cc1 [Example 197, (R)—N-methyl-N-(2,2,2-trifluoro-1-(p-tolyl)ethyl)imidazo[1,2-a]pyrazine-2-sulfonamide]"
13,324,"CCN([C@H](c1ccc(F)cc1)C(F)(F)F)S(=O)(=O)c1cn2ccnc2cn1 [Example 198, (R)—N-ethyl-N-(2,2,2-trifluoro-1-(4-fluorophenyl)ethyl)imidazo[1,2-a]pyrazine-6-sulfonamide]"
14,1150,"CN([C@H](c1ccc(Cl)cc1)C(F)(F)F)S(=O)(=O)c1cn2ccnc2cn1 [Example 199, (R)—N-(1-(4-chlorophenyl)-2,2,2-trifluoroethyl)-N-methylimidazo[1,2-a]pyrazine-6-sulfonamide]"
15,282,"CN([C@H](c1ccc(Cl)cc1)C(F)(F)F)S(=O)(=O)c1cnc2ncsc2c1 [Example 200, (R)—N-(1-(4-chlorophenyl)-2,2,2-trifluoroethyl)-N-methylthiazolo[4,5-b]pyridine-6-sulfonamide]"
